According to ChEMBL document CHEMBL1148093, “Biological effects of prenylated hydroquinones: structure-activity relationship studies in antimicrobial, brine shrimp, and fish lethality assays” (J Nat Prod, 1994):
In brackets after ≈: the same amount, converted by molar mass. Activity calls are given as the source filed them. The calls are words filed in the database; no cut-off is given here.

How the values were obtained:
Candida albicans = assay: Antimicrobial activity against Candida albicans DSM 1665 after 18 hrs by twofold serial dilution method; assay type: functional
Escherichia coli = assay: Antimicrobial activity against Escherichia coli DSM 1103 after 18 hrs by twofold serial dilution method; assay type: functional, organism-based
Pseudomonas aeruginosa = assay: Antimicrobial activity against Pseudomonas aeruginosa DSM 1117 after 18 hrs by twofold serial dilution method; assay type: functional, organism-based
Micrococcus luteus = assay: Antimicrobial activity against Micrococcus luteus DSM 348 after 18 hrs by twofold serial dilution method; assay type: functional
Artemia salina = assay: Toxicity against Artemia salina after 24 hrs; settings: in vivo
Gambusia affinis = assay: Toxicity against Gambusia affinis; settings: in vivo
Bacillus subtilis = assay: Antimicrobial activity against Bacillus subtilis DSM 347 after 18 hrs by twofold serial dilution method; assay type: functional

Compound | MIC (Candida albicans; DSM 1665, 18 h) | Activity (Escherichia coli) | Activity (Pseudomonas aeruginosa) | MIC (Micrococcus luteus) | MIC (Candida albicans) | LC50 (Artemia salina) | LC50 (Gambusia affinis) | MIC (Bacillus subtilis) | MIC (Micrococcus luteus; DSM 348, 18 h) | MIC (Bacillus subtilis; DSM 347, 18 h)
Clc1ccc(COC(Cn2ccnc2)c2ccc(Cl)cc2Cl)c(Cl)c1 (configuration not stated) [MICONAZOLE] | 1.56 µg/mL (≈ 3.75 µM) | inactive | inactive |  |  |  |  |  |  | 
CC(C)CCCC(C)CCCC(C)CCCC(C)CCCC(C)CCCC(C)CCCC(C)CCc1cc(O)ccc1O (configuration not stated) |  | inactive | inactive | inactive | inactive | > 10 ppm | > 100 ppm | inactive |  | 
CC1=CC(=O)C=CC1=O [Cresoquinone] | > 50 µg/mL | inactive | inactive |  |  | 1.06 ppm | 5.4 ppm |  | > 50 µg/mL | 25 µg/mL (≈ 205 µM)
CC(C)=CCC/C(C)=C/CC/C(C)=C/Cc1cc(O)ccc1O |  | inactive | inactive |  | inactive | 0.05 ppm | 3.3 ppm |  | 12.5 µg/mL (≈ 39.7 µM) | 1.56 µg/mL (≈ 4.96 µM)
CC(C)=CCC/C(C)=C/CC1=CC(=O)C=CC1=O | 25 µg/mL (≈ 102 µM) | inactive | inactive |  |  | 0.05 ppm | 0.2 ppm |  | 12.5 µg/mL (≈ 51.2 µM) | 12.5 µg/mL (≈ 51.2 µM)
CC(C)=CCC/C(C)=C/CC/C(C)=C/CC/C(C)=C/CC/C(C)=C/CC/C(C)=C/CC/C(C)=C/CC/C(C)=C/CC1=CC(=O)C=CC1=O |  | inactive | inactive | inactive | inactive | 1.45 ppm | > 100 ppm | inactive |  | 
CC(C)CCCC(C)CCCC(C)CCCC(C)CCCC(C)CCCC(C)CCCC(C)CCCC(C)CCc1cc(O)ccc1O (configuration not stated) |  | inactive | inactive | inactive | inactive | > 10 ppm | > 100 ppm | inactive |  | 
C=C(C)[C@H]1Cc2c(ccc3c2O[C@@H]2COc4cc(OC)c(OC)cc4[C@@H]2C3=O)O1 [ROTENONE] |  | inactive | inactive |  |  |  | 0.03 ppm |  |  | 
CC(C)=CCC/C(C)=C/CC/C(C)=C/CC/C(C)=C/CC/C(C)=C/CC/C(C)=C/CC1=CC(=O)C=CC1=O |  | inactive | inactive | inactive | inactive |  |  | inactive |  | 
CC(C)=CCC1=CC(=O)C=CC1=O | > 50 µg/mL | inactive | inactive |  |  | 0.19 ppm | 1.4 ppm |  | 25 µg/mL (≈ 142 µM) | 25 µg/mL (≈ 142 µM)
CC(C)=CCc1cc(O)ccc1O [PRENYLHYDROQUINONE] | > 50 µg/mL | inactive | inactive |  |  | 0.54 ppm | 22.2 ppm |  | 25 µg/mL (≈ 140 µM) | > 50 µg/mL
CC(C)CCCC(C)CCCC(C)CCCC(C)CCc1cc(O)ccc1O (configuration not stated) |  | inactive | inactive | inactive | inactive | 0.02 ppm | 43.6 ppm | inactive |  | 
Oc1ccc(O)cc1 [HYDROQUINONE] |  | inactive | inactive |  | inactive | 0.35 ppm | 21.5 ppm |  | > 50 µg/mL | > 50 µg/mL
Cc1cc(O)ccc1O [METHYLHYDROQUINONE] | > 50 µg/mL | inactive | inactive |  |  | > 10 ppm | 38.5 ppm |  | > 50 µg/mL | 25 µg/mL (≈ 201 µM)
CC1=CCC[C@H]2[C@](C)(Cc3cc(O)ccc3O)[C@@H](C)CC[C@]12C [AVAROL] |  | inactive | inactive |  | inactive | 0.18 ppm | 4.6 ppm |  | > 50 µg/mL | > 50 µg/mL
CC(C)=CCC/C(C)=C/CC/C(C)=C/CC/C(C)=C/CC/C(C)=C/CC/C(C)=C/CC/C(C)=C/CC1=CC(=O)C=CC1=O |  | inactive | inactive | inactive | inactive | 1.26 ppm | > 100 ppm | inactive |  | 
CC(C)CCCC(C)CCc1cc(O)ccc1O (configuration not stated) |  | inactive | inactive |  | inactive | 0.001 ppm | 0.15 ppm |  | 6.25 µg/mL (≈ 25 µM) | 6.25 µg/mL (≈ 25 µM)
CC(C)CCCC(C)CCCC(C)CCCC(C)CCCC(C)CCCC(C)CCc1cc(O)ccc1O (configuration not stated) |  | inactive | inactive | inactive | inactive | > 10 ppm | > 100 ppm | inactive |  | 
CC(C)=CCC/C(C)=C/CC/C(C)=C/CC/C(C)=C/CC/C(C)=C/CC/C(C)=C/CC/C(C)=C/Cc1cc(O)ccc1O |  | inactive | inactive | inactive | inactive | 0.91 ppm | > 100 ppm | inactive |  | 
CC(C)=CCC/C(C)=C/Cc1cc(O)ccc1O [GEROQUINOL] | 25 µg/mL (≈ 101 µM) | inactive | inactive |  |  | 0.01 ppm | 4.6 ppm |  | 12.5 µg/mL (≈ 50.7 µM) | 6.25 µg/mL (≈ 25.4 µM)
CC(C)=CCC/C(C)=C/CC/C(C)=C/CC/C(C)=C/CC/C(C)=C/CC/C(C)=C/Cc1cc(O)ccc1O |  | inactive | inactive | inactive | inactive | 0.63 ppm | > 100 ppm | inactive |  | 
CC(C)CCc1cc(O)ccc1O | > 50 µg/mL | inactive | inactive |  |  | 0.29 ppm | 3.3 ppm |  | 6.25 µg/mL (≈ 34.7 µM) | 12.5 µg/mL (≈ 69.3 µM)
O=C1C=CC(=O)C=C1 [BENZOQUINONE] | 25 µg/mL (≈ 231 µM) | inactive | inactive |  |  |  |  |  | > 50 µg/mL | > 50 µg/mL
CC(C)CCCC(C)CCCC(C)CCc1cc(O)ccc1O (configuration not stated) |  | inactive | inactive |  | inactive | 0.02 ppm | 21.3 ppm |  | > 50 µg/mL | > 50 µg/mL
GENTAMICIN |  | inactive | inactive | 1.56 µg/mL |  |  |  | 0.78 µg/mL |  | 
CC(C)=CCC/C(C)=C/CC/C(C)=C/CC/C(C)=C/CC/C(C)=C/CC/C(C)=C/CC/C(C)=C/CC/C(C)=C/Cc1cc(O)ccc1O |  | inactive | inactive | inactive | inactive | 0.98 ppm | > 100 ppm | inactive |  | 
